Where “and” joins values, the source holds several entries; their conditions need not be identical. Equal entries are not always repeated. Entries after “also recorded” stand apart in the source; their conditions may differ. Where two headings read alike, the source gives them in different places.
Experiments:
RPE65 [1] = biological target: RPE65 (Bos taurus, UniProt Q28175); test: RPE65 activity assay in vitro (11-cis-retinol production by bovine RPE microsomes); details: for RPE65 inhibition (in words): in vitro
Sequence of RPE65 (Bos taurus, UniProt Q28175) (Q28175 whole entry): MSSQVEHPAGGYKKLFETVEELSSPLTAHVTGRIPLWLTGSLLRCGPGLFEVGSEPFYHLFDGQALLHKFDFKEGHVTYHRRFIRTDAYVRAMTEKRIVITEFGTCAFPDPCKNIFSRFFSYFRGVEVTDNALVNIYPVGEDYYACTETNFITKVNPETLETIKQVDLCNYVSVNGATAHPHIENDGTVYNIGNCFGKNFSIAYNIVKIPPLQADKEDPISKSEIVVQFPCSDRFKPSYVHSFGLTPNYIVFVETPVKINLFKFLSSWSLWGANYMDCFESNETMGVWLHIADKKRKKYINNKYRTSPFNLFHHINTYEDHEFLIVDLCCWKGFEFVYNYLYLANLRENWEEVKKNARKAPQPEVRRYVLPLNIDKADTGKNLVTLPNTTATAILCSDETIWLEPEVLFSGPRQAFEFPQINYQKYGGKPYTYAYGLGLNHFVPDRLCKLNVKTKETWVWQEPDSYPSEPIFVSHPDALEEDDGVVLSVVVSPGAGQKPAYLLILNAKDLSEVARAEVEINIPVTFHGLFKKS

RPE65 [2] = details: 10 mg/kg IP; for 11cRAL / RE: mean ± SD, n = 3 mice
[3] = Observation of animals after treatment (toxicity); assay type: in vivo, BALB/cJ mice; details: 10 mg/kg IP; even 24 h after treatment
From the text: Vehicle-only and nontreated animals served as controls. […] Three animals were used for each time point.

in vitro = details: mouse, microsomes
[4] = test system: mouse liver microsomes (CYP-450 enzymes)
VAP-1 [5] = biological target: T1, VAP-1 (Mus musculus, UniProt O70423); test: VAP-1 oxidation assay (mouse aorta homogenates); details: role: substrate; for ACU-5201 (deaminated product) formed / concentration of tested compound in mouse aorta homogenate: 100 μM, mean ± SD, n = 3
T1 sequence (O70423 1-765): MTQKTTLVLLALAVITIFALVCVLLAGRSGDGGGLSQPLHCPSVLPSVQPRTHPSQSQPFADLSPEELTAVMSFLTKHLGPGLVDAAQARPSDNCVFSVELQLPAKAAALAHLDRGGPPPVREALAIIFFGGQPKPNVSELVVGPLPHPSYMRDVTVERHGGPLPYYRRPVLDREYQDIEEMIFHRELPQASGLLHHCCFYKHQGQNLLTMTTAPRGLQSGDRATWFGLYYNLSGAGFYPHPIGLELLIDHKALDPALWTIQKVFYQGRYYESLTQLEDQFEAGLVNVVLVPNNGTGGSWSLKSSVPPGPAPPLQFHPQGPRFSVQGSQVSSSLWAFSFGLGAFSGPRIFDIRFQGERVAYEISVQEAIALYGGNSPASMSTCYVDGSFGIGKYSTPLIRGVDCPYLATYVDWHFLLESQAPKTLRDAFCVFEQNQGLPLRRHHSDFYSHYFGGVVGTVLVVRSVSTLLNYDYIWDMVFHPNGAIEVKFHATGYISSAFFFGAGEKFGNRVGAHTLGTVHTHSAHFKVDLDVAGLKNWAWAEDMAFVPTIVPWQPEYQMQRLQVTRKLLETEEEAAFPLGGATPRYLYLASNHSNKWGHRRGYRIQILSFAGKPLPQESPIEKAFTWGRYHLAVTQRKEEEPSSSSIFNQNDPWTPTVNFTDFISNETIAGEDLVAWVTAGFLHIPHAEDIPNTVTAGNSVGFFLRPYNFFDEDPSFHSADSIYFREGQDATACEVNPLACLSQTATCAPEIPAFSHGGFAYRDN

VAP-1 [6] = details: role: substrate; cited from earlier work
RPE65 [7] = details: among first targeted inhibitors (amine derivatives of retinol); cited from earlier work
[8] = read-out: IC50 ± SD, bovine RPE microsomes, mean ± SD, n = 3
[9] = bovine RPE microsomes, mean ± SD, n = 3

SMILES: NCCC(O)c1ccc(OCC2CCCCC2)cc1 (stereo not shown) [Compound 3b, 3-Amino-1-(4-(cyclohexylmethoxy)phenyl)propan-1-ol]
- IC50 (RPE65 [1]): 8980 ± 3440 nM

SMILES: NCCC(O)c1ccccc1OCC1CCCCC1 (stereo not shown) [Compound 3c, 3-Amino-1-(2-(cyclohexylmethoxy)phenyl)propan-1-ol]
- IC50 (RPE65 [1]; [8]): 4670 ± 1230 nM

SMILES: NC(CCO)c1cccc(OCC2CCCCC2)c1 (stereo not shown) [Compound 6a, 3-Amino-3-(3-(cyclohexylmethoxy)phenyl)propan-1-ol]
- IC50 ± SD (RPE65 [1]; [9]): No Inhibition
- RPE65 inhibition (in words) (RPE65 [1]): lack of inhibitory activity; also recorded: no inhibition in vitro

SMILES: NC(CO)Cc1cccc(OCC2CCCCC2)c1 (stereo not shown) [Compound 6b, 2-Amino-3-(3-(cyclohexylmethoxy)phenyl)propan-1-ol]
- IC50 ± SD (RPE65 [1]; [9]): No Inhibition
- RPE65 inhibition (in words) (RPE65 [1]): no inhibition in vitro

SMILES: NC(CO)Cc1ccc(OCC2CCCCC2)cc1 (stereo not shown) [Compound 6c, 2-Amino-3-(4-(cyclohexylmethoxy)phenyl)propan-1-ol]
- IC50 ± SD (RPE65 [1]; [9]): No Inhibition
- RPE65 inhibition (in words) (RPE65 [1]): lack of dose-response relationship

SMILES: NCC(O)c1cccc(OCC2CCCCC2)c1 (stereo not shown) [Compound 11a]
- RPE65 inhibition (in words) (RPE65 [1]): substantially less potent than 3a
- IC50 (RPE65 [1]; [8]): 3190 ± 810 nM

SMILES: NCCc1cccc(OCC2CCCCC2)c1 [Compound 11b, 2-(3-(Cyclohexylmethoxy)phenyl)ethan-1-amine]
- IC50 (RPE65 [1]; bovine RPE microsomes): 420 ± 110 nM
- more potent activity toward RPE65 relative to amine 11a (RPE65 [1]; relative to 11a): 7.6 times
- RPE65 inhibition in vivo (in words) (RPE65 [2]): did not display hallmarks of inhibited RPE65 activity in vivo
- 11cRAL (RPE65 [2]; 0 h after light exposure): 16.2 ± 16.2 pmol/eye
- RE (RPE65 [2]; 0 h after light exposure): 225.1 ± 29.5 pmol/eye
- 11cRAL (RPE65 [2]; 24 h): 137.4 ± 44.5 pmol/eye
- RE (RPE65 [2]; 24 h): 377.3 ± 54.4 pmol/eye

SMILES: CC(CN)c1cccc(OCC2CCCCC2)c1 (stereo not shown) [Compound 11c, 2-(3-(Cyclohexylmethoxy)phenyl)propan-1-amine]
- RPE65 inhibition (in words) (RPE65 [1]): weaker inhibition; also recorded: the lowest level of inhibition
- IC50 (RPE65 [1]; [8]): 6730 ± 260 nM

SMILES: NCCc1ccc(F)c(OCC2CCCCC2)c1 [Compound 11d, 2-(3-(Cyclohexylmethoxy)-4-fluorophenyl)ethan-1-amine]
- IC50 (RPE65 [1]; [8]): 1230 ± 130 nM
- decrease in RPE65 inhibition relative to 11b (RPE65 [1]; relative to 11b): 3 fold

SMILES: NCCCc1cccc(OCC2CCCCC2)c1 [Compound 16a]
- IC50 (RPE65 [1]; [8]): 1550 ± 300 nM
- decrease in inhibition of RPE65 relative to 3a (RPE65 [1]): 8 fold

SMILES: CC(CCN)c1cccc(OCC2CCCCC2)c1 (stereo not shown) [Compound 16b, 3-(3-(Cyclohexylmethoxy)phenyl)butan-1-amine]
- RPE65 inhibition (in words) (RPE65 [1]): the lowest level of inhibition
- IC50 (RPE65 [1]; [8]): 820 ± 500 nM
- decrease in inhibition of RPE65 relative to 3a (RPE65 [1]): 4 fold
- potency relative to 16a (RPE65 [1]; relative to 16a): roughly doubled
- toxicity observed in treated animals [3]: all animals showed impaired body movement even 24 h after treatment
- RPE65 inhibition in vivo (in words) (RPE65 [2]): minor RPE65 inhibition 4 h after treatment, but animals were fully dark-adapted after 24 h
- 11cRAL (RPE65 [2]; 0 h after light exposure): 25.6 ± 2.7 pmol/eye
- RE (RPE65 [2]; 0 h after light exposure): 291.5 ± 33.1 pmol/eye
- 11cRAL (RPE65 [2]; 4 h): 94.4 ± 11.4 pmol/eye
- RE (RPE65 [2]; 4 h): 435.5 ± 27.5 pmol/eye
- 11cRAL (RPE65 [2]; 24 h): 370.5 ± 9.1 pmol/eye
- RE (RPE65 [2]; 24 h): 123.9 ± 36.4 pmol/eye

SMILES: CC(CN)Cc1cccc(OCC2CCCCC2)c1 (stereo not shown) [Compound 16c]
- IC50 (RPE65 [1]): 590 ± 70 nM
- 11cRAL (RPE65 [2]; 0 h after light exposure): 17.4 ± 0.8 pmol/eye
- RE (RPE65 [2]; 0 h after light exposure): 253.5 ± 22.5 pmol/eye
- 11cRAL (RPE65 [2]; 4 h): 323.0 ± 5.1 pmol/eye
- RE (RPE65 [2]; 4 h): 111.9 ± 18.5 pmol/eye
- 11cRAL (RPE65 [2]; 24 h): 253.5 ± 9.0 pmol/eye
- RE (RPE65 [2]; 24 h): 85.6 ± 12.7 pmol/eye

SMILES: CC(CN)Cc1ccc(F)c(OCC2CCCCC2)c1 (stereo not shown) [Compound 16d, 3-(3-(Cyclohexylmethoxy)-4-fluorophenyl)-2-methylpropan-1-amine]
- IC50 ± SD (RPE65 [1]; [9]): No Inhibition
- RPE65 inhibition (in words) (RPE65 [1]): inactive
- 11cRAL (RPE65 [2]; 0 h after light exposure): 23.5 ± 2.3 pmol/eye
- RE (RPE65 [2]; 0 h after light exposure): 259.9 ± 54.6 pmol/eye
- 11cRAL (RPE65 [2]; 4 h): 398.0±26.6 pmol/eye and 413.2 ± 8.1 pmol/eye
- RE (RPE65 [2]; 4 h): 101.1 ± 12.9 pmol/eye
- 11cRAL (RPE65 [2]; 24 h): 398.0 ± 26.6 pmol/eye
- RE (RPE65 [2]; 24 h): 122.7 ± 30.6 pmol/eye

SMILES: CNCCC(O)c1cccc(OCC2CCCCC2)c1 (stereo not shown) [Compound 16e, 1-(3-(Cyclohexylmethoxy)phenyl)-3-(methylamino)propan-1-ol]
- Km (in vitro): 39 µM
- Km [4]: 39 µM
- 11cRAL (RPE65 [2]; 0 h after light exposure): 13.8 ± 1.5 pmol/eye
- RE (RPE65 [2]; 0 h after light exposure): 296.6 ± 65.2 pmol/eye
- 11cRAL (RPE65 [2]; 4 h): 22.5 ± 4.5 pmol/eye
- RE (RPE65 [2]; 4 h): 393.5 ± 60.0 pmol/eye
- level of 11cRAL as percent of the dark-adapted level (RPE65 [2]; 24 h): 53%
- 11cRAL (RPE65 [2]; 24 h): 201.8±53.2 pmol/eye
- RE (RPE65 [2]; 24 h): 215.4±99.2 pmol/eye and 213.4 ± 99.2 pmol/eye
- VAP-1 oxidative metabolism (in words) (VAP-1 [5]): resistant to VAP-1 oxidative deamination
- ACU-5201 (deaminated product) formed (VAP-1 [5]; 0 h): 0.00 ± 0.00 µM
- concentration of tested compound in mouse aorta homogenate (VAP-1 [5]; 0 h): 100.32 ± 0.95 µM
- ACU-5201 (deaminated product) formed (VAP-1 [5]; 1 h): 0.48 ± 0.68 µM
- concentration of tested compound in mouse aorta homogenate (VAP-1 [5]; 1 h): 101.20 ± 0.89 µM
- ACU-5201 (deaminated product) formed (VAP-1 [5]; 4 h): 3.76 ± 0.29 µM
- concentration of tested compound in mouse aorta homogenate (VAP-1 [5]; 4 h): 89.07 ± 0.49 µM
- reduction of the formation of ACU-5201 (VAP-1 [5]; 1 h): about 99.5%
- reduction of the formation of ACU-5201 (VAP-1 [5]; 4 h): ~96.25%
- 16e level in eye (after single IP of 3a, 1 h): 0.000 pmol/eye
- 16e level in serum (after single IP of 3a, 1 h): 0.00 pmol/mL serum
- levels in eye and plasma (in words) (after single IP of 16e (10 mg/kg)): decreased significantly at 4 h and approached baseline levels in both eye and plasma at 24 h after injection
- 16e level in serum (after single IP of 16e, 24 h): 0.000 pmol/mL serum
- concentration (read-out: 16e level in serum, after single IP of 16e, 4 h, 10 mg/kg): 0.111 µM

SMILES: COc1cc(NC(C)CCCN)c2ncccc2c1 (stereo not shown) [primaquine]
- VAP-1 metabolism (in words) (VAP-1 [6]): shown important

SMILES: CC1=C(/C=C/C(C)=C/C=C/C(C)=C/CN)C(C)(C)CCC1 [retinylamine]
- potency as RPE65 inhibitor (in words) (RPE65 [7]): the most potent among them

SMILES: N=C(N)NCCCCCCNC(=O)COC(=O)NCCCCNCCCN [tresperimus]
- VAP-1 metabolism (in words) (VAP-1 [6]): shown important

— US20260308108A1, “COMPOSITIONS AND METHODS FOR THE TREATMENT OF OCULAR DISORDERS” (Case Western Reserve University, priority 2023, published 2026)
